The text below walks through data of patent publication US11078216B2, “Bisaryl amides as NRF2 activators” (GLAXOSMITHKLINE INTELLECTUAL PROPERTY DEVELOPMENT LIMITED, priority 2016, dated 2021).

The test deals with NRF2 (NQO1 activity as marker for NRF2 activation), BEAS-2B cells. Nature of the test: BEAS-2B NQO1 MTT Assay. The following applies: Homo sapiens, EC50 of NQO1 specific activity induction, 48 hours incubation, read-out: EC50. In kind it is cell-based. An outline of the steps:
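As a marker of NRF2 activation, NQO1 specific activity was read from the rate of absorbance change at 570 nm in MTT cocktail over 30 minutes. Lysates came from BEAS-2B cells treated for 48 hours at 37° C, and EC50 was derived by 3-parameter fitting.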

On to `CCCn1cc(CO[C@H](c2ccc(C)c(CN3C[C@@H](C)Cc4ccc(F)cc4S3(=O)=O)c2)C(C)(C)C(=O)Nc2cccnc2)nn1` [Example 56, (R)-3-(3-(((S)-8-Fluoro-4-methyl-1,1-dioxido-4,5-dihydrobenzo[f][1,2]thiazepin-2(3H)-yl)methyl)-4-methylphenyl)-2,2-dimethyl-3-((1-propyl-1H-1,2,3-triazol-4-yl)methoxy)-N-(pyridin-3-yl)propanamide], for which the EC50 lay in the range of 100 to 1000 nM. For `CC[C@H]1Cc2ccc(C(F)(F)F)cc2S(=O)(=O)N(Cc2cc([C@@H](c3ccc4c(nnn4CC)c3C)C(C)(C)NC(=O)Cc3nnn[nH]3)ccc2C)C1` [Example 78, N—((S)-1-(3-(((S)-4-Ethyl-1,1-dioxido-8-(trifluoromethyl)-4,5-dihydrobenzo[f][1,2]thiazepin-2(3H)-yl)methyl)-4-methylphenyl)-1-(1-ethyl-4-methyl-1H-benzo[d][1,2,3]triazol-5-yl)-2-methylpropan-2-yl)-2-(1H-tetrazol-5-yl)acetamide] the value was 10 to 100 nM; for `CCn1nnc2c(C)c([C@H](c3ccc(C)c(CN4C[C@@H](C)Cc5cc(C(F)(F)F)ccc5S4(=O)=O)c3)C(C)(C)C(=O)Nc3cncnc3)ccc21` [Example 94, (S)-3-(1-Ethyl-4-methyl-1H-benzo[d][1,2,3]triazol-5-yl)-2,2-dimethyl-3-(4-methyl-3-(((S)-4-methyl-1,1-dioxido-7-(trifluoromethyl)-4,5-dihydrobenzo[f][1,2]thiazepin-2(3H)-yl)methyl)phenyl)-N-(pyrimidin-5-yl)propanamide], 1 to 10 nM.

In the case of `CC[C@@H]1CN(Cc2cc([C@@H](c3ccc4c(nnn4C)c3C)C(C)(C)C(=O)NC3CCOC3)ccc2C)Cc2cnccc2O1` (stereo partly drawn) [Example 100, (3S)-3-(1,4-Dimethyl-1H-benzo[d][1,2,3]triazol-5-yl)-3-(3-(((R)-2-ethyl-2,3-dihydropyrido[3,44][1,4]oxazepin-4(5H)-yl)methyl)-4-methylphenyl)-2,2-dimethyl-N-(tetrahydrofuran-3-yl)propanamide], the EC50 lay within 100 to 1000 nM. For `CC[C@@H]1CN(Cc2cc([C@H](CC(=O)NCCF)c3ccc4c(nnn4CC)c3C)ccc2C)S(=O)(=O)c2cccnc2O1` [Example 38, (S)-3-(3-(((R)-4-Ethyl-1,1-dioxido-3,4-dihydro-2H-pyrido[2,3-b][1,4,5]oxathiazepin-2-yl)methyl)-4-methylphenyl)-3-(1-ethyl-4-methyl-1H-benzo[d][1,2,3]triazol-5-yl)-N-(2-fluoroethyl)propanamide] the value was 100 to 1000 nM; for `CC[C@@H]1CN(Cc2cc([C@H](CC(=O)NCCC(=O)N(C)C)c3ccc4c(nnn4CC)c3C)ccc2C)S(=O)(=O)c2cccnc2O1` [Example 21, (S)—N-(3-(Dimethylamino)-3-oxopropyl)-3-(3-(((R)-4-ethyl-1,1-dioxido-3,4-dihydro-2H-pyrido[2,3-b][1,4,5]oxathiazepin-2-yl)methyl)-4-methylphenyl)-3-(1-ethyl-4-methyl-1H-benzo[d][1,2,3]triazol-5-yl)propanamide], 1000 to 10000 nM.

Consider `CC[C@@H]1CN(Cc2cc([C@H](CC(=O)NC(C)C(=O)NC)c3ccc4c(nnn4CC)c3C)ccc2C)S(=O)(=O)c2cccnc2O1` (stereo partly drawn) [Example 28, (3S)-3-(3-(((R)-4-Ethyl-1,1-dioxido-3,4-dihydro-2H-pyrido[2,3-b][1,4,5]oxathiazepin-2-yl)methyl)-4-methylphenyl)-3-(1-ethyl-4-methyl-1H-benzo[d][1,2,3]triazol-5-yl)-N-(1-(methylamino)-1-oxopropan-2-yl)propanamide], for which the concentration for a half-maximal effect (EC50) lay in the range of 1000 to 10000 nM. The figure for `CC[C@@H]1CN(Cc2cc([C@@H](c3ccc4c(nnn4C)c3C)C(C)(C)C(=O)Nc3ccncc3)ccc2C)Cc2cnccc2O1` [Example 112, (S)-3-(1,4-Dimethyl-1H-benzo[d][1,2,3]triazol-5-yl)-3-(3-(((R)-2-ethyl-2,3-dihydropyrido[3,4-f][1,4]oxazepin-4(5H)-yl)methyl)-4-methylphenyl)-2,2-dimethyl-N-(pyridin-4-yl)propanamide] is 100 to 1000 nM; for `CC[C@@H]1CN(Cc2cc([C@@H](c3ccc4c(nnn4CC)c3C)C(C)(C)NC(=O)c3cnc(OCCO)nc3)ccc2C)S(=O)(=O)c2ccccc2O1` [Example 161, N-((S)-1-(3-(((R)-4-Ethyl-1,1-dioxido-3,4-dihydro-2H-benzo[b][1,4,5]oxathiazepin-2-yl)methyl)-4-methylphenyl)-1-(1-ethyl-4-methyl-1H-benzo[d][1,2,3]triazol-5-yl)-2-methylpropan-2-yl)-2-(2-hydroxyethoxy)pyrimidine-5-carboxamide] it is 10 to 100 nM; for `CC[C@@H]1CN(Cc2cc([C@H](CC(=O)NC3CCOC3)c3ccc4c(nnn4CC)c3C)ccc2C)S(=O)(=O)c2cccnc2O1` (stereo partly drawn) [Example 22, (3S)-3-(3-(((R)-4-Ethyl-1,1-dioxido-3,4-dihydro-2H-pyrido[2,3-b][1,4,5]oxathiazepin-2-yl)methyl)-4-methylphenyl)-3-(1-ethyl-4-methyl-1H-benzo[d][1,2,3]triazol-5-yl)-N-(tetrahydrofuran-3-yl)propanamide] it is 100 to 1000 nM. For `CCCn1cc(CO[C@H](c2ccc(C)c(CN3CC(C)(C)Oc4ccccc4S3(=O)=O)c2)C(C)(C)C(=O)Nc2cccnc2)nn1` [Example 53, (R)-3-(3-((4,4-Dimethyl-1,1-dioxido-3,4-dihydro-2H-benzo[b][1,4,5]oxathiazepin-2-yl)methyl)-4-methylphenyl)-2,2-dimethyl-3-((1-propyl-1H-1,2,3-triazol-4-yl)methoxy)-N-(pyridin-3-yl)propanamide] the value was 100 to 1000 nM; for `CC[C@@H]1CN(Cc2cc([C@@H](c3ccc4c(nnn4CC)c3C)C(C)(C)NC(=O)c3cc[nH]n3)ccc2C)S(=O)(=O)c2ccccc2O1` [Example 150, N-((S)-1-(3-(((R)-4-Ethyl-1,1-dioxido-3,4-dihydro-2H-benzo[b][1,4,5]oxathiazepin-2-yl)methyl)-4-methylphenyl)-1-(1-ethyl-4-methyl-1H-benzo[d][1,2,3]triazol-5-yl)-2-methylpropan-2-yl)-1H-pyrazole-3-carboxamide], 10 to 100 nM. The figure for `CC[C@@H]1CN(Cc2cc([C@@H](c3ccc4c(nnn4C)c3C)C(C)(C)C(=O)NC3CCS(=O)(=O)C3)ccc2C)Cc2cnccc2O1` (stereo partly drawn) [Example 101, (3S)-3-(1,4-Dimethyl-1H-benzo[d][1,2,3]triazol-5-yl)-N-(1,1-dioxidotetrahydrothio-phen-3-yl)-3-(3-(((R)-2-ethyl-2,3-dihydropyrido[3,4-f][1,4]oxazepin-4(5H)-yl)methyl)-4-methylphenyl)-2,2-dimethylpropanamide] is 10 to 100 nM; for `CCn1cc(CO[C@@H](c2ccc(C)c(CN3C[C@@H](C)Cc4ncccc4S3(=O)=O)c2)C(C)(C)C(=O)Nc2cccnc2)nn1` [Example 58, (S)-3-((1-Ethyl-1H-1,2,3-triazol-4-yl)methoxy)-2,2-dimethyl-3-(4-methyl-3-(((S)-4-methyl-1,1-dioxido-4,5-dihydropyrido[2,3-f][1,2]thiazepin-2(3H)-yl)methyl)phenyl)-N-(pyridin-3-yl)propanamide] it is 100 to 1000 nM; for `CC[C@@H]1CN(Cc2cc([C@@H](c3ccc4c(nnn4CC)c3C)C(C)(C)NC(=O)c3ccoc3)ccc2C)S(=O)(=O)c2ccccc2O1` [Example 137, N-((S)-1-(3-(((R)-4-Ethyl-1,1-dioxido-3,4-dihydro-2H-benzo[b][1,4,5]oxathiazepin-2-yl)methyl)-4-methylphenyl)-1-(1-ethyl-4-methyl-1H-benzo[d][1,2,3]triazol-5-yl)-2-methylpropan-2-yl)furan-3-carboxamide] it is 10 to 100 nM. In the case of `CC[C@@H]1CN(Cc2cc([C@H](CC(=O)NCCO)c3ccc4c(nnn4CC)c3C)ccc2C)S(=O)(=O)c2cccnc2O1` [Example 32, (S)-3-(3-(((R)-4-Ethyl-1,1-dioxido-3,4-dihydro-2H-pyrido[2,3-b][1,4,5]oxathiazepin-2-yl)methyl)-4-methylphenyl)-3-(1-ethyl-4-methyl-1H-benzo[d][1,2,3]triazol-5-yl)-N-(2-hydroxyethyl)propanamide], the concentration for a half-maximal effect (EC50) fell in the range of 1000 to 10000 nM. For `CC[C@@H]1CN(Cc2cc([C@@H](c3ccc4c(nnn4CC)c3C)C(C)(C)NC(C)=O)ccc2C)S(=O)(=O)c2ccccc2O1` [Example 132, N—((S)-1-(3-(((R)-4-Ethyl-1,1-dioxido-3,4-dihydro-2H-benzo[b][1,4,5]oxathiazepin-2-yl)methyl)-4-methylphenyl)-1-(1-ethyl-4-methyl-1H-benzo[d][1,2,3]triazol-5-yl)-2-methylpropan-2-yl)acetamide] the value was 10 to 100 nM; for `CC[C@@H]1CN(Cc2cc([C@@H](c3ccc4c(nnn4CC)c3C)C(C)(C)NC(=O)c3ccc(=O)n(C)c3)ccc2C)S(=O)(=O)c2ccccc2O1` [Example 139, N-((S)-1-(3-(((R)-4-Ethyl-1,1-dioxido-3,4-dihydro-2H-benzo[b][1,4,5]oxathiazepin-2-yl)methyl)-4-methylphenyl)-1-(1-ethyl-4-methyl-1H-benzo[d][1,2,3]triazol-5-yl)-2-methylpropan-2-yl)-1-methyl-6-oxo-1,6-dihydropyridine-3-carboxamide], 10 to 100 nM. In the case of `CC[C@@H]1CN(Cc2cc([C@H](CC(=O)Nc3ncccn3)c3ccc4c(nnn4CC)c3C)ccc2C)S(=O)(=O)c2cccnc2O1` [Example 121, (S)-3-(3-(((R)-4-Ethyl-1,1-dioxido-3,4-dihydro-2H-pyrido[2,3-b][1,4,5]oxathiazepin-2-yl)methyl)-4-methylphenyl)-3-(1-ethyl-4-methyl-1H-benzo[d][1,2,3]triazol-5-yl)-N-(pyrimidin-2-yl)propanamide], the half-maximal effective concentration (EC50) was in the range of 100 to 1000 nM. As to `CC[C@@H]1CN(Cc2cc([C@H](CC(=O)Nc3cccnn3)c3ccc4c(nnn4CC)c3C)ccc2C)S(=O)(=O)c2cccnc2O1` [Example 122, (S)-3-(3-(((R)-4-Ethyl-1,1-dioxido-3,4-dihydro-2H-pyrido[2,3-b][1,4,5]oxathiazepin-2-yl)methyl)-4-methylphenyl)-3-(1-ethyl-4-methyl-1H-benzo[d][1,2,3]triazol-5-yl)-N-(pyridazin-3-yl)propanamide], the EC50 is 100 to 1000 nM.

A word on the EC50: it is the midpoint of the concentration-response curve.
